Measured values published in patent publication US12441691B2 (Cytokinetics, Inc., priority 2020, dated 2025).

test system: rabbit skeletal myofibrils (fast skeletal myofibrils); test: Activation of fast skeletal myofibrils (PUMA assay, AC1.4); format: biochemical; conditions: calcium at pCa25, AC1.4 = concentration at which the compound increased the enzymatic activity
Method: Preparation of fast skeletal myofibrils: Rabbit skeletal myofibrils were prepared based upon the method of Herrmann et al. (Biochem. 32(28):7255-7263(1993). Myofibrils were prepared from rabbit psoas muscle purchased from Pel-Freez Biologicals (Arkansas) within 2 days of ordering, stored on ice. Minced muscle was homogenized in 10 volumes of ice-cold “standard” buffer (50 mM Tris, pH 7.4, 0.1 M KOAc, 5 mM KCl, 2 mM dithiothreitol (DTT), 0.2 mM phenylmethylsulfonyl fluoride (PMSF), 10 μM leupeptin, 5 μM pepstatin, and 0.5 mM sodium azide) containing 5 mM ethylenediaminetetraacetic acid (EDTA) and 0.5% Triton X-100 using an Omni-Macro homogenizer. Myofibrils were recovered by low speed centrifugation (3000 rpm for 10 minutes) and washed 2 times in the Triton X-100 containing buffer to ensure removal of cellular membrane. Following the Triton washes, myofibrils were washed 3 times in “standard” buffer containing 2 mM magnesium acetate. A final wash in assay buffer (12 mM piperazine-1,4-bis(2-ethanesulfonic acid) (PIPES), pH 6.8, 60 mM KCl, 1 mM DTT) was performed and brought to 10% sucrose for flash freezing in liquid nitrogen and storage at −80° C.
Activation of Fast Skeletal Myofibrils: Fast fiber activators were identified by measuring the enzymatic activity of muscle myofibril preparations using the proprietary PUMA (trademark) (see, e.g., U.S. Pat. Nos. 6,410,254, 6,743,599, 7,202,051, and 7,378,254) assay system. Myofibril preparations consisted of rabbit skeletal muscle (approximately 90% fast fibers) that had been mechanically homogenized and washed with a detergent (Triton X-100) to remove cellular membranes. This preparation retained all of the sarcomeric components in a native conformation and the enzymatic activity was still regulated by calcium. Compounds were tested using a myofibril suspension and a level of calcium sufficient to increase enzymatic activity of the myofibrils to 25% of their maximal rate (termed pCa25). Enzymatic activity was tracked via a pyruvate kinase and lactate dehydrogenase-coupled enzyme system. This assay regenerates myosin-produced ADP into ATP by oxidizing NADH, producing an absorbance change at 340 nm. The buffering system was 12 mM PIPES, 2 mM MgCl2, 1 mM DTT at pH 6.8 (PM12 buffer). […] In Table 9, “Example Compound” refers to the compound labeled with the same number in Table 2.

Structure (SMILES) | AC1.4
CC[C@H](C)[C@H]1C(=O)Nc2ccccc2CN1C(=O)N1CCN(CCc2ccccc2)CC1 [Compound 281, (S)-3-((S)-sec-butyl)-4-(4-phenethylpiperazine-1-carbonyl)-1,3,4,5-tetrahydro-2H-benzo[e][1,4]diazepin-2-one] | 0.30 µM
CC[C@H](C)[C@H]1C(=O)Nc2ccccc2CN1C(=O)N1CCCC(C(N)=O)C1 (stereo partly drawn) [Compound 305, 1-((S)-3-((S)-sec-butyl)-2-oxo-2,3,4,5-tetrahydro-1H-benzo[e][1,4]diazepine-4-carbonyl)piperidine-3-carboxamide] | 1.42 µM
CC[C@H](C)[C@H]1C(=O)Nc2ccccc2CN1C(=O)[C@H](C)O [Compound 86, (S)-3-((S)-sec-butyl)-4-((S)-2-hydroxypropanoyl)-1,3,4,5-tetrahydro-2H-benzo[e][1,4]diazepin-2-one] | 1.81 µM
CC[C@H](C)[C@H]1C(=O)Nc2ccccc2CN1C(=O)c1cnn(CC(N)=O)c1 [Compound 173, 2-(4-((S)-3-((S)-sec-butyl)-2-oxo-2,3,4,5-tetrahydro-1H-benzo[e][1,4]diazepine-4-carbonyl)-1H-pyrazol-1-yl)acetamide] | 0.22 µM
CC[C@H](C)[C@H]1C(=O)Nc2ccccc2CN1C(=O)N1CCNCC1 [Compound 226, (S)-3-((S)-sec-butyl)-4-(piperazine-1-carbonyl)-1,3,4,5-tetrahydro-2H-benzo[e][1,4]diazepin-2-one] | 3.91 µM
CC[C@H](C)[C@H]1C(=O)Nc2ccccc2CN1C(=O)N1CC(OCC(=O)N(C)C)C1 [Compound 269, 2-((1-((S)-3-((S)-sec-butyl)-2-oxo-2,3,4,5-tetrahydro-1H-benzo[e][1,4]diazepine-4-carbonyl)azetidin-3-yl)oxy)-N,N-dimethylacetamide] | 0.92 µM
CC[C@H](C)[C@H]1C(=O)Nc2ccccc2CN1C(=O)c1ccc(C(N)=O)[nH]1 [Compound 85, 5-((S)-3-((S)-sec-butyl)-2-oxo-2,3,4,5-tetrahydro-1H-benzo[e][1,4]diazepine-4-carbonyl)-1H-pyrrole-2-carboxamide] | 0.01 µM
CC[C@H](C)[C@H]1C(=O)Nc2ccccc2CN1C(=O)N[C@H]1CCNC1=O [Compound 210, (S)-3-((S)-sec-butyl)-2-oxo-N-((S)-2-oxopyrrolidin-3-yl)-1,2,3,5-tetrahydro-4H-benzo[e][1,4]diazepine-4-carboxamide] | 4.25 µM
CC[C@H](C)[C@H]1C(=O)Nc2cccc(F)c2CN1C(=O)N1CC[C@H](O)C1 [Compound 340, (S)-3-((S)-sec-butyl)-6-fluoro-4-((S)-3-hydroxypyrrolidine-1-carbonyl)-1,3,4,5-tetrahydro-2H-benzo[e][1,4]diazepin-2-one] | 3.00 µM
CC[C@H](C)[C@H]1C(=O)Nc2ccccc2CN1C(=O)CO [Compound 18, (S)-3-((S)-sec-Butyl)-4-(2-hydroxyacetyl)-1,3,4,5-tetrahydro-2H-benzo[e][1,4]diazepin-2-one] | 0.31 µM
CC[C@H](C)[C@H]1C(=O)Nc2ccccc2CN1C(=O)OC [Compound 20, Methyl (S)-3-((S)-sec-butyl)-2-oxo-1,2,3,5-tetrahydro-4H-benzo[e][1,4]diazepine-4-carboxylate] | 0.25 µM
CC[C@H](C)[C@H]1C(=O)Nc2ccccc2CN1c1c(N2CC(O)C2)c(=O)c1=O [Compound 30, 3-((S)-3-((S)-sec-Butyl)-2-oxo-1,2,3,5-tetrahydro-4H-benzo[e][1,4]diazepin-4-yl)-4-(3-hydroxyazetidin-1-yl)cyclobut-3-ene-1,2-dione] | 0.08 µM
CC[C@H](C)[C@H]1C(=O)Nc2ccccc2CN1C(=O)C(C)(C)O [Compound 51, (S)-3-((S)-sec-Butyl)-4-(2-hydroxy-2-methylpropanoyl)-1,3,4,5-tetrahydro-2H-benzo[e][1,4]diazepin-2-one] | 1.23 µM
CC[C@H](C)[C@H]1C(=O)Nc2ccccc2CN1C(=O)c1cccc(=O)[nH]1 [Compound 47, (S)-3-((S)-sec-butyl)-4-(6-oxo-1,6-dihydropyridine-2-carbonyl)-1,3,4,5-tetrahydro-2H-benzo[e][1,4]diazepin-2-one] | 0.14 µM
CC[C@H](C)[C@H]1C(=O)Nc2ccc(F)cc2CN1C(=O)N1CC(O)C1 [Compound 72, (S)-3-((S)-sec-butyl)-7-fluoro-4-(3-hydroxyazetidine-1-carbonyl)-1,3,4,5-tetrahydro-2H-benzo[e][1,4]diazepin-2-one] | 0.41 µM
CC[C@H](C)[C@H]1C(=O)Nc2ccccc2CN1C(=O)N1CCCC(C(N)=O)C1 (stereo partly drawn) [Compound 238, 1-((S)-3-((S)-sec-butyl)-2-oxo-2,3,4,5-tetrahydro-1H-benzo[e][1,4]diazepine-4-carbonyl)piperidine-3-carboxamide] | 4.49 µM
CC[C@H](C)[C@H]1C(=O)Nc2ccccc2CN1C(=O)N1CC[C@@H](O)C1 [Compound 280, (S)-3-((S)-sec-butyl)-4-((R)-3-hydroxypyrrolidine-1-carbonyl)-1,3,4,5-tetrahydro-2H-benzo[e][1,4]diazepin-2-one] | 1.06 µM
CC[C@H](C)[C@H]1C(=O)Nc2ccccc2CN1/C(=N/C#N)NC [Compound 87, (S,E)-3-((S)-sec-butyl)-N′-cyano-N-methyl-2-oxo-1,2,3,5-tetrahydro-4H-benzo[e][1,4]diazepine-4-carboximidamide] | 0.07 µM
CC[C@H](C)[C@H]1C(=O)Nc2ccc(F)cc2CN1C(=O)c1cccc(=O)[nH]1 [Compound 344, (S)-3-((S)-sec-butyl)-7-fluoro-4-(6-oxo-1,6-dihydropyridine-2-carbonyl)-1,3,4,5-tetrahydro-2H-benzo[e][1,4]diazepin-2-one] | 1.91 µM
CC[C@H](C)[C@H]1C(=O)Nc2ccccc2CN1/C(N)=N/S(C)(=O)=O [Compound 112, (S,E)-3-((S)-sec-butyl)-N′-(methylsulfonyl)-2-oxo-1,2,3,5-tetrahydro-4H-benzo[e][1,4]diazepine-4-carboximidamide] | 0.81 µM
CC[C@H](C)[C@H]1C(=O)Nc2ccccc2CN1C(=O)CC(C)O (stereo partly drawn) [Compound 199, (3S)-3-((S)-sec-butyl)-4-(3-hydroxybutanoyl)-1,3,4,5-tetrahydro-2H-benzo[e][1,4]diazepin-2-one] | 0.94 µM
CC[C@H](C)[C@H]1C(=O)Nc2ccccc2CN1C(=O)c1cccc(=O)n1C [Compound 154, (S)-3-((S)-sec-butyl)-4-(1-methyl-6-oxo-1,6-dihydropyridine-2-carbonyl)-1,3,4,5-tetrahydro-2H-benzo[e][1,4]diazepin-2-one] | 0.65 µM
CC[C@H](C)[C@H]1C(=O)Nc2ccccc2CN1c1nc(C)ns1 [Compound 34, (S)-3-((S)-sec-Butyl)-4-(3-methyl-1,2,4-thiadiazol-5-yl)-1,3,4,5-tetrahydro-2H-benzo[e][1,4]diazepin-2-one] | 0.09 µM
CC[C@H](C)[C@H]1C(=O)Nc2ccccc2C(CO)N1C(N)=O (stereo partly drawn) [Compound 317, (3S)-3-((S)-sec-butyl)-5-(hydroxymethyl)-2-oxo-1,2,3,5-tetrahydro-4H-benzo[e][1,4]diazepine-4-carboxamide] | 1.30 µM
CC[C@H](C)[C@H]1C(=O)Nc2ccccc2CN1C(=O)c1cccnn1 [Compound 192, (S)-3-((S)-sec-butyl)-4-(pyridazine-3-carbonyl)-1,3,4,5-tetrahydro-2H-benzo[e][1,4]diazepin-2-one] | 0.19 µM
CC[C@H](C)[C@H]1C(=O)Nc2ccccc2CN1C(=O)c1ccc(C(=O)NCCO)[nH]1 [Compound 174, 5-((S)-3-((S)-sec-butyl)-2-oxo-2,3,4,5-tetrahydro-1H-benzo[e][1,4]diazepine-4-carbonyl)-N-(2-hydroxyethyl)-1H-pyrrole-2-carboxamide] | 0.03 µM
CC[C@H](C)[C@H]1C(=O)Nc2ccccc2CN1C(=O)Nc1cc(-c2ccncc2)c[nH]c1=O [Compound 258, (S)-3-((S)-sec-butyl)-2-oxo-N-(6-oxo-1,6-dihydro-[3,4′-bipyridin]-5-yl)-1,2,3,5-tetrahydro-4H-benzo[e][1,4]diazepine-4-carboxamide] | 0.29 µM
CC[C@H](C)[C@H]1C(=O)Nc2ccccc2CN1C(=O)N(C)C [Compound 58, (S)-3-((S)-sec-butyl)-N,N-dimethyl-2-oxo-1,2,3,5-tetrahydro-4H-benzo[e][1,4]diazepine-4-carboxamide] | 0.13 µM
CC[C@H](C)[C@H]1C(=O)Nc2ccccc2CN1C(=O)c1c[nH]nn1 [Compound 153, (S)-3-((S)-sec-butyl)-4-(1H-1,2,3-triazole-4-carbonyl)-1,3,4,5-tetrahydro-2H-benzo[e][1,4]diazepin-2-one] | 0.09 µM
